Results on four compounds are retold here after PubChem BioAssay AID1259407 (Chemical Carcinogenesis Research Information System (CCRIS), 2018).

Calls of active or inactive are those of the source. The rule behind the calls is not given here.

In the series the test system is CCRIS mutagenicity, Ames/micronucleus/aberration tests. Nature of the series: CCRIS mutagenicity studies. An excerpt:
The CCRIS database contains chemical records with carcinogenicity, mutagenicity, tumor promotion, and tumor inhibition test results. It was developed by the National Cancer Institute (NCI). Data are derived from studies cited in primary journals, current awareness tools, NCI reports, and other sources. Test results have been reviewed by experts in carcinogenesis and mutagenesis.
CCRIS provides historical information from the years 1985 - 2011. It is no longer updated.
This is an archive assay for CCRIS mutagenicity studies.

[1] abbreviates: Test System: AMES SALMONELLA TYPHIMURIUM, Strain/Indicator: TA98, Metabolic Activation: NONE, Method: STANDARD PLATE.
[2] abbreviates: Test System: AMES SALMONELLA TYPHIMURIUM, Strain/Indicator: TA98, Metabolic Activation: RAT, LIVER, S-9, AROCLOR 1254, Method: STANDARD PLATE.
The mark [3] stands for this setting: Test System: AMES SALMONELLA TYPHIMURIUM, Strain/Indicator: TA100, Metabolic Activation: NONE, Method: STANDARD PLATE.
The mark [4] stands for this setting: Test System: AMES SALMONELLA TYPHIMURIUM, Strain/Indicator: TA100, Metabolic Activation: RAT, LIVER, S-9, AROCLOR 1254, Method: STANDARD PLATE.
Where [5] appears, read: Test System: AMES SALMONELLA TYPHIMURIUM, Strain/Indicator: TA1535, Metabolic Activation: NONE, Method: STANDARD PLATE.
Where [6] appears, read: Test System: AMES SALMONELLA TYPHIMURIUM, Strain/Indicator: TA1537, Metabolic Activation: NONE, Method: STANDARD PLATE.
Setting [7] is: Test System: MOUSE LYMPHOMA, Strain/Indicator: L5178Y (TK+/TK-), Metabolic Activation: RAT, LIVER, S-9, AROCLOR 1254, Method: SUSPENSION/PLATE.

Take `CCCCCC[C@@H](O)C/C=C\CCCCCCCC(=O)O`: the mutagenic call (Test System: AMES SALMONELLA TYPHIMURIUM, Strain/Indicator: TA98, Metabolic Activation: HAMSTER, LIVER, S-9, AROCLOR 1254, Method: PREINCUBATION) was “inactive; negative”; the mutagenic call (Test System: AMES SALMONELLA TYPHIMURIUM, Strain/Indicator: TA98, Metabolic Activation: NONE, Method: PREINCUBATION) is “inactive; negative”; the mutagenic call (Test System: AMES SALMONELLA TYPHIMURIUM, Strain/Indicator: TA98, Metabolic Activation: RAT, LIVER, S-9, AROCLOR 1254, Method: PREINCUBATION) was “inactive; negative”; the mutagenic call (Test System: AMES SALMONELLA TYPHIMURIUM, Strain/Indicator: TA100, Metabolic Activation: HAMSTER, LIVER, S-9, AROCLOR 1254, Method: PREINCUBATION) is “inactive; negative”; the mutagenic call (Test System: AMES SALMONELLA TYPHIMURIUM, Strain/Indicator: TA100, Metabolic Activation: NONE, Method: PREINCUBATION) is “inactive; negative”; the mutagenic call (Test System: AMES SALMONELLA TYPHIMURIUM, Strain/Indicator: TA100, Metabolic Activation: RAT, LIVER, S-9, AROCLOR 1254, Method: PREINCUBATION) is “inactive; negative”. For the same compound, the mutagenic call by setting is: (Test System: AMES SALMONELLA TYPHIMURIUM, Strain/Indicator: TA1535, Metabolic Activation: HAMSTER, LIVER, S-9, AROCLOR 1254, Method: PREINCUBATION) “inactive; negative”; (Test System: AMES SALMONELLA TYPHIMURIUM, Strain/Indicator: TA1535, Metabolic Activation: NONE, Method: PREINCUBATION) “inactive; negative”; (Test System: AMES SALMONELLA TYPHIMURIUM, Strain/Indicator: TA1535, Metabolic Activation: RAT, LIVER, S-9, AROCLOR 1254, Method: PREINCUBATION) “inactive; negative”; (Test System: AMES SALMONELLA TYPHIMURIUM, Strain/Indicator: TA1537, Metabolic Activation: HAMSTER, LIVER, S-9, AROCLOR 1254, Method: PREINCUBATION) “inactive; negative”; (Test System: AMES SALMONELLA TYPHIMURIUM, Strain/Indicator: TA1537, Metabolic Activation: NONE, Method: PREINCUBATION) “inactive; negative”; (Test System: AMES SALMONELLA TYPHIMURIUM, Strain/Indicator: TA1537, Metabolic Activation: RAT, LIVER, S-9, AROCLOR 1254, Method: PREINCUBATION) “inactive; negative”.

In the case of `CCCCCON=O`, the mutagenic call runs as follows: (Test System: AMES SALMONELLA TYPHIMURIUM, Strain/Indicator: TA98, Metabolic Activation: HAMSTER, LIVER, S-9, AROCLOR 1254, Method: STANDARD PLATE) “inactive; negative”; under setting [1], “inactive; negative”; under setting [2], “inactive; negative”; (Test System: AMES SALMONELLA TYPHIMURIUM, Strain/Indicator: TA100, Metabolic Activation: HAMSTER, LIVER, S-9, AROCLOR 1254, Method: STANDARD PLATE) “active; positive”; under setting [3], “active; positive”; under setting [4], “inactive; negative”. Moreover, the mutagenic call (Test System: AMES SALMONELLA TYPHIMURIUM, Strain/Indicator: TA1535, Metabolic Activation: HAMSTER, LIVER, S-9, AROCLOR 1254, Method: STANDARD PLATE) is “active; positive”; the mutagenic call under setting [5] is “active; positive”; the mutagenic call (Test System: AMES SALMONELLA TYPHIMURIUM, Strain/Indicator: TA1535, Metabolic Activation: RAT, LIVER, S-9, AROCLOR 1254, Method: STANDARD PLATE) was “active; positive”; the mutagenic call (Test System: AMES SALMONELLA TYPHIMURIUM, Strain/Indicator: TA1537, Metabolic Activation: HAMSTER, LIVER, S-9, AROCLOR 1254, Method: STANDARD PLATE) was “inactive; negative”; the mutagenic call under setting [6] is “inactive; negative”; the mutagenic call (Test System: AMES SALMONELLA TYPHIMURIUM, Strain/Indicator: TA1537, Metabolic Activation: RAT, LIVER, S-9, AROCLOR 1254, Method: STANDARD PLATE) was “inactive; negative”. Further, the mutagenic call runs as follows: (Test System: MOUSE LYMPHOMA, Strain/Indicator: L5178Y (TK+/TK-), Metabolic Activation: NONE, Method: SUSPENSION/PLATE) “inactive; negative. reevaluation of results: inconclusive/negative”; under setting [7], “inactive; negative. reevaluation of results: negative”.

For the compound `O=C(O)/C(Cl)=C(/C(=O)O)C(Cl)Cl`, the mutagenic call is, setting by setting: (Test System: AMES SALMONELLA TYPHIMURIUM, Strain/Indicator: TA97, Metabolic Activation: NONE, Method: STANDARD PLATE) “inactive; negative”; (Test System: AMES SALMONELLA TYPHIMURIUM, Strain/Indicator: TA97, Metabolic Activation: RAT, LIVER, S-9, PHENOBARBITAL, Method: STANDARD PLATE) “inactive; negative”; under setting [1], “inactive; negative”; under setting [2], “inactive; negative”; (Test System: AMES SALMONELLA TYPHIMURIUM, Strain/Indicator: TA98, Metabolic Activation: RAT, LIVER, S-9, PHENOBARBITAL, Method: STANDARD PLATE) “inactive; negative”; under setting [4], “inactive; negative”. The mutagenic call is “inactive; negative” (Test System: AMES SALMONELLA TYPHIMURIUM, Strain/Indicator: TA100, Metabolic Activation: RAT, LIVER, S-9, PHENOBARBITAL, Method: STANDARD PLATE); “inactive; negative” (Test System: AMES SALMONELLA TYPHIMURIUM, Strain/Indicator: TA102, Metabolic Activation: NONE, Method: STANDARD PLATE); “inactive; negative” (Test System: AMES SALMONELLA TYPHIMURIUM, Strain/Indicator: TA102, Metabolic Activation: RAT, LIVER, S-9, AROCLOR 1254, Method: STANDARD PLATE).

For the compound `Nc1ccn([C@@H]2C=C(CO)[C@@H](O)[C@H]2O)c(=O)n1`, the mutagenic call is “inactive; negative” (Test System: AMES SALMONELLA TYPHIMURIUM, Strain/Indicator: TA98, Metabolic Activation: HAMSTER, LIVER, S-9, AROCLOR 1254 (10%), Method: STANDARD PLATE); “inactive; negative” under setting [1]; “inactive; negative” (Test System: AMES SALMONELLA TYPHIMURIUM, Strain/Indicator: TA98, Metabolic Activation: RAT, LIVER, S-9, AROCLOR 1254 (10%), Method: STANDARD PLATE); “inactive; negative” (Test System: AMES SALMONELLA TYPHIMURIUM, Strain/Indicator: TA100, Metabolic Activation: HAMSTER, LIVER, S-9, AROCLOR 1254 (10%), Method: STANDARD PLATE); “inactive; negative” under setting [3]; “inactive; negative” (Test System: AMES SALMONELLA TYPHIMURIUM, Strain/Indicator: TA100, Metabolic Activation: RAT, LIVER, S-9, AROCLOR 1254 (10%), Method: STANDARD PLATE). Further, the mutagenic call was “inactive; negative” (Test System: AMES SALMONELLA TYPHIMURIUM, Strain/Indicator: TA1535, Metabolic Activation: HAMSTER, LIVER, S-9, AROCLOR 1254 (10%), Method: STANDARD PLATE); “inactive; negative” under setting [5]; “inactive; negative” (Test System: AMES SALMONELLA TYPHIMURIUM, Strain/Indicator: TA1535, Metabolic Activation: RAT, LIVER, S-9, AROCLOR 1254 (10%), Method: STANDARD PLATE); “inactive; negative” (Test System: AMES SALMONELLA TYPHIMURIUM, Strain/Indicator: TA1537, Metabolic Activation: HAMSTER, LIVER, S-9, AROCLOR 1254 (10%), Method: STANDARD PLATE); “inactive; negative” under setting [6]; “inactive; negative” (Test System: AMES SALMONELLA TYPHIMURIUM, Strain/Indicator: TA1537, Metabolic Activation: RAT, LIVER, S-9, AROCLOR 1254 (10%), Method: STANDARD PLATE). Further, the mutagenic call (Test System: AMES SALMONELLA TYPHIMURIUM, Strain/Indicator: TA1538, Metabolic Activation: HAMSTER, LIVER, S-9, AROCLOR 1254 (10%), Method: STANDARD PLATE) is “inactive; negative”; the mutagenic call (Test System: AMES SALMONELLA TYPHIMURIUM, Strain/Indicator: TA1538, Metabolic Activation: NONE, Method: STANDARD PLATE) was “inactive; negative”; the mutagenic call (Test System: AMES SALMONELLA TYPHIMURIUM, Strain/Indicator: TA1538, Metabolic Activation: RAT, LIVER, S-9, AROCLOR 1254 (10%), Method: STANDARD PLATE) is “inactive; negative”; the mutagenic call under setting [7] is “active; positive. reevaluation of results: positive”; the mutagenic call (Test System: Mouse lymphoma, Strain/Indicator: L5178Y (tk+/tk-), Metabolic Activation: None, Method: Suspension/plate) was “active; positive”.
